Assays:
[1] = Pharmacokinetic study in rats after oral administration of Semen Cuscutae extract (HPLC-MS/MS of plasma); assay type: in vivo, Sprague–Dawley rats; conditions: oral Semen Cuscutae extract 13 g/kg; for plasma concentration after 15 minutes of intragastric administration / AUC(0-inf) / Cmax / AUC / T max / t 1/2: rat plasma; for plasma concentration after 15 minutes of intragastric administration: LLOQ 1 ng/mL; for AUC: read-out: AUC(0-tn)
Procedure: 20 μL of methanol, 20 μL of IS (liquiritin, 200 ng/mL) and 20 μL of formic acid were added to 100 μL of plasma sample and then vortex-mixed. The mixture was extracted with 800 μL of acetonitrile by vortexing for 3 min. After centrifugation at 14000 rpm for 10 min, the supernatant was transferred to a clean glass tube and dried with nitrogen. The residue was reconstituted in 100 μL of methanol and then centrifuged at 14000 rpm for 10 min. 5 μL of supernatant was injected into the LC–MS/MS system for analysis.
Six Sprague–Dawley rats (SPF, 200 ± 10 g, male) were purchased from HFK Laboratory Animal Technology Co., Ltd. The rats were housed in a standard laboratory condition (12 h dark-light cycle; temperature was 25°C ± 2°C and humidity was kept 50 ± 5%) and fed standard dry pellet diet and water for one week for acclimatization. Before the experiments, the rats were in fasting state for 12 h, with free access to water. The Semen Cuscutae extracts were dissolved in 0.5% carboxymethyl cellulose-sodium, prepared into suspension and gavage to the rats at a dose of 13 g/kg. Approximately 200 μL of rat blood samples was collected from the orbital venous plexus at 0, 0.03, 0.08, 0.17, 0.25, 0.5, 1, 2, 4, 6, 8, 10, 12, 24, 36, and 48 h after oral administration into 1.5 mL heparinized centrifuge tube. After centrifugation at 7000 rpm for 10 min immediately, the supernatant was collected into a new centrifuge tube and stored at −70°C until analysis.
Pharmacokinetic parameters (Cmax, t1/2, Tmax, AUC(0-tn), and AUC(0-∞)) were obtained using the software “Drug and Statistics 3.0” (DAS 3.0) (Medical College of Wannan, China).

[2] = Stability of analytes in rat plasma QC samples under processing and storage conditions; assay type: in vitro ADME; conditions: n = 6; for Measured concentration, room temperature for 4h / Measured concentration, three freeze-thaw / Measured concentration, −70°C for 21 days: rat plasma; for Measured concentration, autosampler for 12h: treated rat plasma sample
Procedure: The stability of the 13 analytes was evaluated by QC samples in different processing and storage conditions, including short-term stability (putting the analytes in ambient temperature for 4 h and storing analytes in autosampler for 12 h after treatment), long-term stability (storing the analytes at −70°C for 21 days) and subjecting analytes to three freeze-thaw cycles. All stability experiments were tested in six parallels with low, middle, and high concentrations.

[3] = male, Sprague-Dawley, rat, plasma, po, 13 g/kg, n = 6

| Compound | plasma concentration after 15 minutes of intragastric administration [1] | Measured concentration, room temperature for 4h ([2]; spiked 2 ng/mL) [ng/mL] | Measured concentration, three freeze-thaw ([2]; spiked 2 ng/mL) [ng/mL] | Measured concentration, −70°C for 21 days ([2]; spiked 2 ng/mL) [ng/mL] | Measured concentration, room temperature for 4h ([2]; spiked 25 ng/mL) [ng/mL] | Measured concentration, three freeze-thaw ([2]; spiked 25 ng/mL) [ng/mL] | Measured concentration, −70°C for 21 days ([2]; spiked 25 ng/mL) [ng/mL] | Measured concentration, room temperature for 4h ([2]; spiked 250 ng/mL) [ng/mL] | Measured concentration, three freeze-thaw ([2]; spiked 250 ng/mL) [ng/mL] | Measured concentration, −70°C for 21 days ([2]; spiked 250 ng/mL) [ng/mL] | Measured concentration, autosampler for 12h ([2]; spiked 2 ng/mL) [ng/mL] | Measured concentration, autosampler for 12h ([2]; spiked 25 ng/mL) [ng/mL] | Measured concentration, autosampler for 12h ([2]; spiked 250 ng/mL) [ng/mL] | AUC(0-inf) ([1]; male, Sprague-Dawley, n = 6) [ng·h/mL] | Cmax ([1]; male, Sprague-Dawley, n = 6) [ng/mL] | AUC ([1]; male, Sprague-Dawley, n = 6) [ng·h/mL] | T max ([1]; n = 6) [min] | t 1/2 ([1]; n = 6) [min] | also measured |
| --- | --- | --- | --- | --- | --- | --- | --- | --- | --- | --- | --- | --- | --- | --- | --- | --- | --- | --- | --- |
| O=c1cc(-c2ccc(O)cc2)oc2cc(O)cc(O)c12 [Apigenin] | lower than the LLOQ | 2.2 ± 0.1 | 2.0 ± 0.1 | 2.1 ± 0.1 | 26.4 ± 1.2 | 25.7 ± 2.0 | 26.5 ± 1.3 | 249.3 ± 12.8 | 262.2 ± 16.0 | 257.8 ± 8.2 | 2.1 ± 0.2 | 25.0 ± 1.2 | 248.5 ± 4.9 | – | – | – | – | – | – |
| O=c1c(O[C@@H]2O[C@H](CO)[C@H](O)[C@H](O)[C@H]2O)c(-c2ccc(O)c(O)c2)oc2cc(O)cc(O)c12 [Hyperoside] | – | 2.0 ± 0.1 | 2.1 ± 0.1 | 1.9 ± 0.1 | 23.0 ± 1.2 | 26.2 ± 1.5 | 26.4 ± 1.8 | 244.4 ± 14.3 | 254.7 ± 9.7 | 256.4 ± 15.8 | 1.8 ± 0.1 | 23.6 ± 0.7 | 230.2 ± 13.1 | 754 ± 424 | 29.8 ± 12.8 | 684 ± 407 | 10.2 ± 4.2 | 21.6 ± 13.8 | T max ([1]; n = 6, listed as hyperoside): less than 1 h; t 1/2 ([1]; n = 6, listed as hyperoside): less than 1.5 h |
| O=C(O)/C=C/c1ccc(O)c(O)c1 [Caffeic acid] | – | 2.1 ± 0.1 | 2.1 ± 0.1 | 2.0 ± 0.1 | 27.9 ± 1.0 | 27.0 ± 1.3 | 26.0 ± 0.6 | 272.5 ± 8.9 | 255.7 ± 3.9 | 250.2 ± 5.1 | 2.2 ± 0.1 | 28.1 ± 0.8 | 262.6 ± 7.4 | 652 ± 292 | 33.7 ± 8.43 | 613 ± 291 | – | 696 ± 55.2 | Tmax [1, 3]: 16.8 ± 2.4 min; half-life [1, 3]: > 450 min |
| O=c1cc(-c2ccc(O)c(O)c2)oc2cc(O)cc(O)c12 [Luteolin] | lower than the LLOQ | 2.2 ± 0.1 | 2.0 ± 0.1 | 2.0 ± 0.1 | 26.5 ± 0.5 | 26.8 ± 1.6 | 27.4 ± 0.9 | 256.7 ± 11.5 | 261.1 ± 8.2 | 257.6 ± 5.1 | 2.1 ± 0.1 | 25.6 ± 1.0 | 244.9 ± 6.3 | – | – | – | – | – | – |
| O=C(/C=C/c1ccc(O)c(O)c1)O[C@@H]1C[C@](O)(C(=O)O)C[C@@H](O)[C@H]1O [Chlorogenic acid] | – | 2.1 ± 0.1 | 2.1 ± 0.1 | 2.1 ± 0.1 | 27.7 ± 1.6 | 28.1 ± 1.0 | 26.6 ± 1.2 | 258.4 ± 15.7 | 268.6 ± 15.8 | 253.6 ± 7.7 | 2.1 ± 0.1 | 26.6 ± 1.6 | 253.1 ± 6.0 | 1000 ± 646 | 35.5 ± 7.3 | 995 ± 654 | 13.2 ± 3.6 | 61.2 ± 40.2 | half-life [1, 3]: < 90 min; T max ([1]; n = 6, listed as chlorogenic acid): less than 1 h |
| O=c1c(O[C@@H]2O[C@H](CO)[C@@H](O)[C@H](O)[C@H]2O)c(-c2ccc(O)cc2)oc2cc(O)cc(O)c12 [Astragalin] | – | 2.1 ± 0.1 | 2.1 ± 0.1 | 2.0 ± 0.1 | 27.6 ± 1.2 | 27.2 ± 0.8 | 26.1 ± 1.2 | 248.1 ± 4.3 | 258.6 ± 8.5 | 251.5 ± 8.7 | 2.1 ± 0.1 | 27.3 ± 1.0 | 254.6 ± 4.6 | 441 ± 292 | 58.2 ± 28.5 | 370 ± 259 | 14.4 ± 5.4 | 27 ± 15.6 | T max ([1]; n = 6, listed as astragalin): less than 1 h; t 1/2 ([1]; n = 6, listed as astragalin): less than 1.5 h |
| O=C(/C=C/c1ccc(O)c(O)c1)O[C@H]1[C@H](O)C[C@](O)(C(=O)O)C[C@H]1O [Cryptochlorogenic acid] | lower than the LLOQ | 2.0 ± 0.1 | 2.0 ± 0.1 | 2.0 ± 0.1 | 27.0 ± 1.8 | 26.2 ± 0.3 | 25.5 ± 1.2 | 260.4 ± 3.3 | 248.9 ± 6.5 | 244.4 ± 7.4 | 2.1 ± 0.1 | 27.3 ± 0.6 | 251.2 ± 9.7 | – | – | – | – | – | – |
| C[C@@H]1O[C@@H](Oc2c(-c3ccc(O)c(O)c3)oc3cc(O)cc(O)c3c2=O)[C@H](O)[C@H](O)[C@H]1O [Quercitrin] | lower than the LLOQ | 2.1 ± 0.1 | 2.3 ± 0.1 | 2.0 ± 0.1 | 26.3 ± 0.7 | 26.9 ± 1.5 | 26.5 ± 0.5 | 252.5 ± 9.1 | 261.4 ± 10.3 | 247.9 ± 5.3 | 2.1 ± 0.1 | 26.4 ± 0.9 | 253.1 ± 4.7 | – | – | – | – | – | – |
| O=c1c(O)c(-c2ccc(O)c(O)c2)oc2cc(O)cc(O)c12 [Quercetin] | lower than the LLOQ | 2.2 ± 0.1 | 2.0 ± 0.1 | 1.9 ± 0.1 | 26.2 ± 0.7 | 27.3 ± 0.6 | 25.6 ± 0.9 | 254.9 ± 11.8 | 253.2 ± 5.0 | 260.0 ± 6.2 | 2.3 ± 0.1 | 26.6 ± 0.7 | 245.3 ± 11.6 | – | – | – | – | – | – |

From PMC6925736, “Development of a HPLC-MS/MS Method to Determine the 13 Elements of Semen Cuscutae and Application to a Pharmacokinetic Study in Rats” (Evidence-based Complementary and Alternative Medicine : eCAM, 2019)
